Source: ChEMBL document CHEMBL3600360, “Fluorescent photoaffinity probes for mitotic protein kinase Aurora A” (Bioorg Med Chem Lett, 2015)
Calls of active or inactive are those of the source. No cut-off for these calls is given here.

What was measured:
[1] = biological target: T1, Aurora kinase A (Homo sapiens) (UniProt O14965); assay: Inhibition of purified recombinant full-length Aurora A (unknown origin) assessed as residual enzyme activity at 2 mM using kemptide analogue substrate and 5 mM ATP in presence of TPX2 (1 to 43 residues)
T1 sequence (whole entry): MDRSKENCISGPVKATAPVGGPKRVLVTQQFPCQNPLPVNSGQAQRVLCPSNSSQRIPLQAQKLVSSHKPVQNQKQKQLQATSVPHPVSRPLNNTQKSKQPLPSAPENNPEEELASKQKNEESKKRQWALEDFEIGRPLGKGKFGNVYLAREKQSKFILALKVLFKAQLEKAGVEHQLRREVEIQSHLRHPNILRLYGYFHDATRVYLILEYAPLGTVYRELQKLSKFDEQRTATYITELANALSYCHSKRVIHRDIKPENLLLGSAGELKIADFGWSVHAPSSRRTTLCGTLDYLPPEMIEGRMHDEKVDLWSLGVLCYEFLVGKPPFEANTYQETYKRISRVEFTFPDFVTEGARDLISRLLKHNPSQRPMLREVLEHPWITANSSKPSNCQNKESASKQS

[2] = biological target: T1, Aurora kinase A (Homo sapiens); assay: Binding affinity to purified recombinant full-length Aurora A (unknown origin) assessed as covalent irreversible complex formation at 2.4 uM irradiated for 15 mins with near-UV light by SDS-PAGE and Western blot method
[3] = biological target: T1, Aurora kinase A (Homo sapiens); assay: Binding affinity to purified recombinant full-length Aurora A (unknown origin) assessed as covalent irreversible complex formation at 1.2 uM irradiated for 30 mins with near-UV light by SDS-PAGE and Western blot method
[4] = biological target: T1, Aurora kinase A (Homo sapiens); assay: Binding affinity to purified recombinant full-length Aurora A (unknown origin) assessed as covalent irreversible complex formation at 1.2 uM irradiated for 15 mins with near-UV light in presence of TPX2 by SDS-PAGE and Western blot method
[5] = biological target: T1, Aurora kinase A (Homo sapiens); assay: Binding affinity to Aurora A in human HeLa cells assessed as covalent irreversible complex formation at 1 uM irradiated for 15 mins with near-UV light by SDS-PAGE and Western blot method; assay type: cell-based
[6] = biological target: T1, Aurora kinase A (Homo sapiens); assay: Binding affinity to Aurora A in human HeLa cells assessed as covalent irreversible complex formation at 1 uM irradiated for 15 mins with near-UV light in presence of Aurora A inhibitor MLN8237 by SDS-PAGE and Western blot method; assay type: cell-based
Aurora kinase A = biological target: T2, Aurora kinase A (Homo sapiens, UniProt O14965); assay: Binding affinity to purified recombinant full-length Aurora A (unknown origin) by fluorescence polarisation/anisotropy based equilibrium binding assay
T2 sequence (O14965 whole entry): T1 sequence (whole entry)

[7] = biological target: T1, Aurora kinase A (Homo sapiens); assay: Binding affinity to 1 uM and >100 uM VX689-prre-treated purified recombinant full-length Aurora A (unknown origin) assessed as covalent irreversible complex formation at 1 uM irradiated for 15 mins with near-UV light by SDS-PAGE and Western blot method
[8] = biological target: T1, Aurora kinase A (Homo sapiens); assay: Binding affinity to purified recombinant full-length Aurora A (unknown origin) assessed as covalent irreversible complex formation at 2.4 uM irradiated for 15 mins with near-UV light in presence of TPX2 by SDS-PAGE and Western blot method
[9] = biological target: T1, Aurora kinase A (Homo sapiens); assay: Binding affinity to purified recombinant full-length Aurora A (unknown origin) assessed as covalent irreversible complex formation at 4.8 uM irradiated for 15 mins with near-UV light using 200 nM Aurora A by SDS-PAGE and Western blot method

## O=C(O)[C@]1(Cc2cccc(Nc3nccs3)n2)CC[C@@H](Oc2cccc(Cl)c2F)CC1
[1]
  Activity: 67%

## CCN1/C(=C/C=C/C2=[N+](CC)c3ccc(S(=O)(=O)O)cc3C2(C)C)C(C)(CCCC(=O)NCCCC[C@@H](NC(=O)[C@H](CCCNC(=N)N)NC(=O)[C@H](CCCNC(=N)N)NC(=O)[C@H](CCCNC(=N)N)NC(=O)[C@H](CCCNC(=N)N)NC(=O)[C@H](CCCNC(=N)N)NC(=O)[C@H](CCCNC(=N)N)NC(=O)[C@H](Cc2ccc(C(=O)c3ccccc3)cc2)NC(=O)[C@H](Cc2ccc(C(=O)c3ccccc3)cc2)NC(=O)CCCNC(=O)[C@]2(Cc3cccc(Nc4nccs4)n3)CC[C@@H](Oc3cccc(Cl)c3F)CC2)C(N)=O)c2cc(S(=O)(=O)O)ccc21 (some centres not stated)
[2]
  Activity: 8.5%
[1]
  Activity: 100%

## CN(C)c1ccc2c(-c3ccc(C(=O)NCCCC[C@H](NC(=O)[C@H](Cc4ccc(C(=O)c5ccccc5)cc4)NC(=O)[C@H](Cc4ccc(C(=O)c5ccccc5)cc4)NC(=O)CCCNC(=O)[C@]4(Cc5cccc(Nc6nccs6)n5)CC[C@@H](Oc5cccc(Cl)c5F)CC4)C(N)=O)cc3C(=O)O)c3ccc(=[N+](C)C)cc-3oc2c1
[3]
  Activity: 9%
[1]
  Activity: 100%
[4]
  Activity: Active
[5]
  Activity: Active
[6]
  Activity: Active

## CN(C)c1ccc2c(-c3ccc(C(=O)NCCCOCCOCCOCCCNC(=O)[C@@H](Cc4ccc(N=[N+]=[N-])cc4)NC(=O)CCNC(=O)[C@]4(Cc5cccc(Nc6nccs6)n5)CC[C@@H](Oc5cccc(Cl)c5F)CC4)cc3C(=O)O)c3ccc(=[N+](C)C)cc-3oc2c1
[3]
  Activity: 20%
Aurora kinase A
  Kd: 2.2 nM
[1]
  Activity: 73%
[7]
  Activity: inactive

## N=C(N)NCCC[C@@H](NC(=O)[C@@H](CCCNC(=N)N)NC(=O)[C@@H](CCCNC(=N)N)NC(=O)[C@@H](CCCNC(=N)N)NC(=O)[C@@H](CCCNC(=N)N)NC(=O)[C@@H](CCCNC(=N)N)NC(=O)CCCCCNC(=O)[C@]1(Cc2cccc(Nc3nccs3)n2)CC[C@@H](Oc2cccc(Cl)c2F)CC1)C(N)=O
[1]
  Activity: 10%

## CN(C)c1ccc2c(-c3ccc(C(=O)NCCCC[C@H](NC(=O)[C@H](Cc4ccccc4)NC(=O)[C@H](Cc4ccccc4)NC(=O)CCCNC(=O)[C@]4(Cc5cccc(Nc6nccs6)n5)CC[C@@H](Oc5cccc(Cl)c5F)CC4)C(N)=O)cc3C(=O)O)c3ccc(=[N+](C)C)cc-3oc2c1
[3]
  Activity: 1.5%
Aurora kinase A
  Kd: 0.44 nM
[1]
  Activity: 110%
[4]
  Activity: Active

## CCN1/C(=C/C=C/C2=[N+](CC)c3ccc(S(=O)(=O)O)cc3C2(C)C)C(C)(CCCC(=O)NCCCC[C@@H](NC(=O)[C@H](CCCNC(=N)N)NC(=O)[C@H](CCCNC(=N)N)NC(=O)[C@H](CCCNC(=N)N)NC(=O)[C@H](CCCNC(=N)N)NC(=O)[C@H](CCCNC(=N)N)NC(=O)[C@H](CCCNC(=N)N)NC(=O)[C@@H](Cc2ccc(N=[N+]=[N-])cc2)NC(=O)[C@@H](Cc2ccc(N=[N+]=[N-])cc2)NC(=O)CCNC(=O)[C@]2(Cc3cccc(Nc4nccs4)n3)CC[C@@H](Oc3cccc(Cl)c3F)CC2)C(N)=O)c2cc(S(=O)(=O)O)ccc21 (some centres not stated)
[2]
  Activity: 15%
Aurora kinase A
  Kd: 6.1 nM
[1]
  Activity: 74%
[7]
  Activity: inactive
[5]
  Activity: Active
[6]
  Activity: inactive

## CN(C)c1ccc2c(-c3ccc(C(=O)NCCCC[C@H](NC(=O)[C@H](Cc4ccc(N=[N+]=[N-])cc4)NC(=O)[C@H](Cc4ccc(N=[N+]=[N-])cc4)NC(=O)CCCNC(=O)[C@]4(Cc5cccc(Nc6nccs6)n5)CC[C@@H](Oc5cccc(Cl)c5F)CC4)C(N)=O)cc3C(=O)O)c3ccc(=[N+](C)C)cc-3oc2c1
[2]
  Activity: 40%
Aurora kinase A
  Kd: 1.9 nM
[1]
  Activity: 100%
[8]
  Activity: Active
[9]
  Activity: inactive
[7]
  Activity: inactive
[5]
  Activity: Active
[6]
  Activity: Active

## CCN1/C(=C/C=C/C2=[N+](CC)c3ccc(S(=O)(=O)O)cc3C2(C)C)C(C)(CCCC(=O)NCCCC[C@@H](NC(=O)[C@@H](CCCNC(=N)N)NC(=O)[C@@H](CCCNC(=N)N)NC(=O)[C@@H](CCCNC(=N)N)NC(=O)[C@@H](CCCNC(=N)N)NC(=O)[C@@H](CCCNC(=N)N)NC(=O)[C@@H](CCCNC(=N)N)NC(=O)[C@@H](Cc2ccc(C(=O)c3ccccc3)cc2)NC(=O)[C@@H](Cc2ccc(C(=O)c3ccccc3)cc2)NC(=O)CCCNC(=O)[C@]2(Cc3cccc(Nc4nccs4)n3)CC[C@@H](Oc3cccc(Cl)c3F)CC2)C(N)=O)c2cc(S(=O)(=O)O)ccc21 (some centres not stated)
[2]
  Activity: 6.9%
Aurora kinase A
  Kd: 6.5 nM
[1]
  Activity: 110%

## CCN1/C(=C/C=C/C2=[N+](CC)c3ccc(S(=O)(=O)O)cc3C2(C)C)C(C)(CCCC(=O)NCCCC[C@@H](NC(=O)[C@@H](CCCNC(=N)N)NC(=O)[C@@H](CCCNC(=N)N)NC(=O)[C@@H](CCCNC(=N)N)NC(=O)[C@@H](CCCNC(=N)N)NC(=O)[C@@H](CCCNC(=N)N)NC(=O)[C@@H](CCCNC(=N)N)NC(=O)[C@@H](Cc2ccc(N=[N+]=[N-])cc2)NC(=O)[C@@H](Cc2ccc(N=[N+]=[N-])cc2)NC(=O)CCNC(=O)[C@]2(Cc3cccc(Nc4nccs4)n3)CC[C@@H](Oc3cccc(Cl)c3F)CC2)C(N)=O)c2cc(S(=O)(=O)O)ccc21 (stereo in doubt)
[2]
  Activity: 11%
Aurora kinase A
  Kd: 2.5 nM
[1]
  Activity: 96%
[7]
  Activity: inactive

## CCN1/C(=C/C=C/C2=[N+](CC)c3ccc(S(=O)(=O)O)cc3C2(C)C)C(C)(CCCC(=O)NCCCC[C@@H](NC(=O)[C@@H](CCCNC(=N)N)NC(=O)[C@@H](CCCNC(=N)N)NC(=O)[C@@H](CCCNC(=N)N)NC(=O)[C@@H](CCCNC(=N)N)NC(=O)[C@@H](CCCNC(=N)N)NC(=O)[C@@H](CCCNC(=N)N)NC(=O)[C@H](Cc2ccc(N=[N+]=[N-])cc2)NC(=O)[C@H](Cc2ccc(N=[N+]=[N-])cc2)NC(=O)CCNC(=O)[C@]2(Cc3cccc(Nc4nccs4)n3)CC[C@@H](Oc3cccc(Cl)c3F)CC2)C(N)=O)c2cc(S(=O)(=O)O)ccc21 (some centres not stated)
[2]
  Activity: 18%
Aurora kinase A
  Kd: 5.7 nM
[1]
  Activity: 71%
[7]
  Activity: inactive
[5]
  Activity: Active
[6]
  Activity: inactive

## CCN1/C(=C/C=C/C2=[N+](CC)c3ccc(S(=O)(=O)O)cc3C2(C)C)C(C)(CCCC(=O)NCCCC[C@@H](NC(=O)[C@@H](CCCNC(=N)N)NC(=O)[C@@H](CCCNC(=N)N)NC(=O)[C@@H](CCCNC(=N)N)NC(=O)[C@@H](CCCNC(=N)N)NC(=O)[C@@H](CCCNC(=N)N)NC(=O)[C@@H](CCCNC(=N)N)NC(=O)[C@H](Cc2ccc(C(=O)c3ccccc3)cc2)NC(=O)[C@H](Cc2ccc(C(=O)c3ccccc3)cc2)NC(=O)CCCNC(=O)[C@]2(Cc3cccc(Nc4nccs4)n3)CC[C@@H](Oc3cccc(Cl)c3F)CC2)C(N)=O)c2cc(S(=O)(=O)O)ccc21 (some centres not stated)
[2]
  Activity: 8.1%
Aurora kinase A
  Kd: 9.1 nM
[1]
  Activity: 100%
